Consider 21 compounds from ChEMBL document CHEMBL1141500, “Thiol-based angiotensin-converting enzyme 2 inhibitors: P1' modifications for the exploration of the S1' subsite” (Bioorg Med Chem Lett, 2008).

Test [1] addresses T1, Angiotensin-converting enzyme 2 (Homo sapiens, UniProt Q9BYF1). Put plainly: Inhibition of human recombinant ACE2 by fluorescence assay. The following applies: read-out: Ki app.
The target of test [2] is T2, Carboxypeptidase A1 (Homo sapiens, UniProt P15085).
T2 sequence (P15085 whole entry): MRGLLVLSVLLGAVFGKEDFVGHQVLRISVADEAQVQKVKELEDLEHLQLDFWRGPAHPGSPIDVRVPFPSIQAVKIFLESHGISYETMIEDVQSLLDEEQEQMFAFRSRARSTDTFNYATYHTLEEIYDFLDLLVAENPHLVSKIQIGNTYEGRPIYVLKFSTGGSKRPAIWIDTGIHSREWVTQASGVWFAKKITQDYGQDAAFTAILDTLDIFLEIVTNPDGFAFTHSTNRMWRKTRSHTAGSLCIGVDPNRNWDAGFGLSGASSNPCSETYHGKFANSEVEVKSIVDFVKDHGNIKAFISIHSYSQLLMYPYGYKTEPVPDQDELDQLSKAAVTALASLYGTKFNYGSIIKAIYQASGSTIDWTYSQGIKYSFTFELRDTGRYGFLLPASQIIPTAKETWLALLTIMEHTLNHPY
Put plainly: Inhibition of human recombinant CpA by fluorescence assay. The following applies: read-out: Ki app.

For test [3], the target named is Neprilysin (Homo sapiens, UniProt P08473). Put plainly: Inhibition of human recombinant NEP by fluorescence assay. The following applies: read-out: Ki app.
Neprilysin, sequence (P08473 whole entry): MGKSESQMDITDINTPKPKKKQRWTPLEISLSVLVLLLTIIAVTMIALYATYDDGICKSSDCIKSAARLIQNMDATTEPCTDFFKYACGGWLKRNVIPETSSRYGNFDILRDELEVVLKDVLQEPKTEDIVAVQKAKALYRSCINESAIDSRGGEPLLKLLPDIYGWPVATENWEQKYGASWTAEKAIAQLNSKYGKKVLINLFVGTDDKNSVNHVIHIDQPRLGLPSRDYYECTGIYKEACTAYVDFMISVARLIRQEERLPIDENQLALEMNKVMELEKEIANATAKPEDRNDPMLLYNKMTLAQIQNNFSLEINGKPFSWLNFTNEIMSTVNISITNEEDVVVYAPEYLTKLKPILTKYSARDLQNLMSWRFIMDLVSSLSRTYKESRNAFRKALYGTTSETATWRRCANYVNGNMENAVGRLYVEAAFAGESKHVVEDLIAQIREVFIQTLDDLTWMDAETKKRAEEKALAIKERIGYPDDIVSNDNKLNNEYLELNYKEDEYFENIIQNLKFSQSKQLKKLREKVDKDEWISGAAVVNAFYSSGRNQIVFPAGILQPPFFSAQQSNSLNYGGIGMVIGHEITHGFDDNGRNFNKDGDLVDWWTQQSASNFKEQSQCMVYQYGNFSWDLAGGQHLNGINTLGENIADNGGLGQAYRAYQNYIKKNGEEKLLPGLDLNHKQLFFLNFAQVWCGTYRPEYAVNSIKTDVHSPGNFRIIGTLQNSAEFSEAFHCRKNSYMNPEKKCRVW
Test [4] concerns the target Angiotensin-converting enzyme (Homo sapiens, UniProt P12821). Put plainly: Inhibition of human recombinant ACE by fluorescence assay. The following applies: read-out: Ki app.
For test [5], the species on record is Homo sapiens. Put plainly: Selectivity for human recombinant ACE2 over human recombinant CpA.
The species entered for test [6] is Homo sapiens. The test can be described thus: Selectivity for human recombinant ACE2 over human recombinant ACE.
Test [7] addresses T1, Angiotensin-converting enzyme 2. Put plainly: Inhibition of ACE2.
The species entered for test [8] is Homo sapiens. The test can be described thus: Selectivity for human recombinant ACE2 over human recombinant NEP.

T1 sequence (Q9BYF1 whole entry): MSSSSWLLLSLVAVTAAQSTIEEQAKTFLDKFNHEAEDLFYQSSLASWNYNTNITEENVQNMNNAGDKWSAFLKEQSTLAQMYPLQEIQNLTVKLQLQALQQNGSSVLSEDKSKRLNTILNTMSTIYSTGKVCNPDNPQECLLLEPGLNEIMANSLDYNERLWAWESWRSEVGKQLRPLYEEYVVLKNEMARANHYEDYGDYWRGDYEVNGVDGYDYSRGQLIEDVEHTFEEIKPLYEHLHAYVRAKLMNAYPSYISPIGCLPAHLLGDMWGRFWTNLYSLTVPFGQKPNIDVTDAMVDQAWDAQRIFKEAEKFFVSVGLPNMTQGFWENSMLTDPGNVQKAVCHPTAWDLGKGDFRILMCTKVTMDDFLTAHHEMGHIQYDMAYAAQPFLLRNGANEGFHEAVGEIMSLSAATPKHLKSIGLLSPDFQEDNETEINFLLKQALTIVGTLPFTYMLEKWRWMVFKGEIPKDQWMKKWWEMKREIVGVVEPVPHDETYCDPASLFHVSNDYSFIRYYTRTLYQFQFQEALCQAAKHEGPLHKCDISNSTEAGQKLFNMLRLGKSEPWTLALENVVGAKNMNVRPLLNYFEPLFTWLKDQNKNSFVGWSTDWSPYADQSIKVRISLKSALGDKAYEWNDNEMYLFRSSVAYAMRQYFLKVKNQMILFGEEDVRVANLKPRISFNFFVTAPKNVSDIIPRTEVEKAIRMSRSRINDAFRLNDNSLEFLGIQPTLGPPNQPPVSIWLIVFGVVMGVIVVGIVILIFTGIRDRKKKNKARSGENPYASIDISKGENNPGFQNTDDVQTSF
Angiotensin-converting enzyme, sequence (P12821 whole entry): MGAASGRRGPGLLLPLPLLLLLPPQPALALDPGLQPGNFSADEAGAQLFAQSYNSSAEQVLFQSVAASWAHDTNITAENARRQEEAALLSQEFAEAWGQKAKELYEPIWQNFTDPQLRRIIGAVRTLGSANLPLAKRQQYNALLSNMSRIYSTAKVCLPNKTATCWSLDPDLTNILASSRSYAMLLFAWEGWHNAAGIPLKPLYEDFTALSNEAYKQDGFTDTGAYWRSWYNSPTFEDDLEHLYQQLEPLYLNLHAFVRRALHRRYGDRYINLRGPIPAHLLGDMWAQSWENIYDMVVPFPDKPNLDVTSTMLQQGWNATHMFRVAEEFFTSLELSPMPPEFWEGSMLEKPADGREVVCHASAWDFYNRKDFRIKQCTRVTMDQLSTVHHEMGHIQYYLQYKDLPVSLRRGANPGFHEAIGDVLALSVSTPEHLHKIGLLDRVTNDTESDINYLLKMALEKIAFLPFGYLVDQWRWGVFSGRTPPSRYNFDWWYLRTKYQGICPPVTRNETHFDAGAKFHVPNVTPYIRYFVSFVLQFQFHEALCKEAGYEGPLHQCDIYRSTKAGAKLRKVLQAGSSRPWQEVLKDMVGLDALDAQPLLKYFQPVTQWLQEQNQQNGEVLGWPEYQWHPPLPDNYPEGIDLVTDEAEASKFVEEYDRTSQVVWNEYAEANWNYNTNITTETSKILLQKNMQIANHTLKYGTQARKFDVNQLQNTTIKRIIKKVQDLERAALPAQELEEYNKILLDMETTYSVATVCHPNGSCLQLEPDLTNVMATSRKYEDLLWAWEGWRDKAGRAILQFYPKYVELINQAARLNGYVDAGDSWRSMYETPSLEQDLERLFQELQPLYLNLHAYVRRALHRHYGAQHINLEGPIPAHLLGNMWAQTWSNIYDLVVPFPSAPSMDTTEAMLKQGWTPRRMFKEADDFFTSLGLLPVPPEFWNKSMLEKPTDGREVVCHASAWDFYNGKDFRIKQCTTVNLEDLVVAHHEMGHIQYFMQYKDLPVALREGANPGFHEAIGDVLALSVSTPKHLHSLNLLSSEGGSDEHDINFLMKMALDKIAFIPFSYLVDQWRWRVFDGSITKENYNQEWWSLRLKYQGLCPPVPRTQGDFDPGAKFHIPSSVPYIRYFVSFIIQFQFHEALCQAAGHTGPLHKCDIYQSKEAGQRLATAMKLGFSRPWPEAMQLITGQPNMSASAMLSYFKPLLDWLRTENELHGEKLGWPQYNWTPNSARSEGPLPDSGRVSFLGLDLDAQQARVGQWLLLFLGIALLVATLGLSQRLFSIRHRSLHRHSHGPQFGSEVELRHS

For the compound `CC[C@@H](C)[C@H](S)C(=O)N[C@@H](Cc1cccc(-c2ccccc2)c1)C(=O)O`, the Ki in test [1] stood at 0.0022 µM; in test [2], 5 µM; in test [3], 0.019 µM; in test [4], 1 µM.
Turning to `CC[C@@H](C)[C@H](S)C(=O)NCC(=O)O`, the Ki in test [1] was determined as 0.09 µM; in test [2], 35 µM; in test [3], 5.1 µM; in test [4], 0.25 µM.
Consider `CC[C@@H](C)[C@H](S)C(=O)N[C@@H](Cc1cccc2ccccc12)C(=O)O`, for which the Ki in test [1] turned out to be 0.0022 µM; in test [2], 3.6 µM; in test [3], 0.012 µM; in test [4], 1.8 µM. Moreover, the Selectivity ratio in test [5] and in test [6] was > 100 in each case.
By IC50 is commonly meant the concentration that gives 50% inhibition. The low end stands for greater potency, the high end for weaker potency. `CC(=O)NCC(=O)N[C@@H](CC(=O)O)C(=O)N[C@@H](Cc1ccc(O)cc1)C(=O)N[C@@H](CO)C(=O)N[C@@H](Cc1cnc[nH]1)C(=O)N[C@H]1CSSC[C@@H](C(=O)N[C@H](C(=O)N[C@@H](Cc2ccc(O)cc2)C(=O)N2CCC[C@H]2C(=O)N[C@@H](CC(=O)O)C(=O)N2CCC[C@H]2C(=O)N[C@@H](CCC(=O)O)C(=O)NCC(=O)NCC(=O)NCC(N)=O)[C@@H](C)O)NC(=O)[C@H](CCCCN)NC(=O)[C@H](Cc2c[nH]c3ccccc23)NC(=O)[C@H](Cc2c[nH]c3ccccc23)NC(=O)[C@@H]2CCCN2C(=O)[C@H](Cc2ccc(O)cc2)NC(=O)[C@H](Cc2ccc(O)cc2)NC(=O)[C@H](CCCNC(=N)N)NC(=O)[C@H](CC(C)C)NC(=O)[C@@H]2CCCN2C(=O)[C@H](CO)NC1=O` returned an IC50 in test [7] of 0.01 µM.
In the case of `CC[C@@H](C)[C@H](S)C(=O)N[C@@H](Cc1ccc(OCc2ccc(F)c(F)c2)cc1)C(=O)O`, the Ki in test [1] was determined as 0.00085 µM; in test [2], 3.3 µM; in test [3] it was 0.64 µM; in test [4] it was 1.8 µM. Also, the Selectivity ratio in test [5] and in test [6] was > 750 throughout.
For the compound `CC[C@@H](C)[C@H](S)C(=O)N[C@@H](Cc1ccccc1OCc1ccccc1)C(=O)O`, the Ki in test [1] turned out to be 0.006 µM; in test [2] it was 1.6 µM; in test [3], 0.12 µM; in test [4], 0.77 µM. Further, the Selectivity ratio in test [8] is 20.
Take `CC[C@@H](C)[C@H](S)C(=O)N[C@@H](Cc1ccc2ccccc2c1)C(=O)O`: the Ki worked out at 0.0024 µM in test [1], 7.2 µM in test [2], 0.046 µM in test [3] and 0.31 µM in test [4]. Further, the Selectivity ratio in test [5] and in test [6] was > 100 throughout.
As for `CC[C@@H](C)[C@H](S)C(=O)N[C@@H](Cc1ccc(OCc2ccc(C(F)(F)F)cc2)cc1)C(=O)O`, the Ki in test [1] was 0.035 µM; in test [2], 4.6 µM; in test [3], 1.5 µM; in test [4] it was 2.6 µM.
For `CC[C@@H](C)[C@H](S)C(=O)N[C@@H](Cc1cccc(OCc2ccccc2)c1)C(=O)O`, the Ki in test [1] turned out to be 0.0024 µM; in test [2], 5 µM; in test [3] it was 0.037 µM; in test [4], 0.75 µM. Further, the Selectivity ratio in test [8] stood at 15.
With `CC[C@@H](C)[C@H](S)C(=O)N[C@@H](Cc1ccccc1Oc1ccccc1)C(=O)O`, the Ki in test [1] came out at 0.0009 µM; in test [2], 2.3 µM; in test [3], 0.18 µM; in test [4], 5 µM. Besides, in test [8], the Selectivity ratio worked out at 200.
As for `CC[C@@H](C)[C@H](S)C(=O)N[C@@H](Cc1ccc(OCc2ccc(F)cc2)cc1)C(=O)O`, the Ki in test [1] was found to be 0.0025 µM; in test [2], 16 µM; in test [3], 0.18 µM; in test [4] it was 4 µM.
The matching figures for `CC[C@@H](C)[C@H](S)C(=O)N[C@@H](Cc1ccc(OCc2ccc(F)cc2F)cc1)C(=O)O`: 0.002 µM, 1.9 µM, 0.075 µM and 0.95 µM.
The matching figures for `CC[C@@H](C)[C@H](S)C(=O)N[C@@H](Cc1cccc(Oc2ccccc2)c1)C(=O)O`: 0.0058 µM, 14 µM, 0.079 µM and 1.1 µM.
With `CC[C@@H](C)[C@H](S)C(=O)N[C@@H](Cc1ccc(Oc2ccccc2)cc1)C(=O)O`, the Ki in test [1] worked out at 0.0022 µM; in test [2], 8.9 µM; in test [3], 0.01 µM; in test [4], 0.25 µM. Further, the Selectivity ratio in test [6] was > 100.
Consider `CC[C@@H](C)[C@H](S)C(=O)N[C@@H](Cc1ccc(O)cc1)C(=O)O`, for which the Ki in test [1] turned out to be 0.0013 µM; in test [2], 0.35 µM; in test [3] it was 0.075 µM; in test [4], 0.41 µM.
`NCCNCCN1CC1`: the IC50 in test [7] stood at 57 µM.
For the compound `CC[C@@H](C)[C@H](S)C(=O)N[C@@H](C)C(=O)O`, the Ki turned out to be 0.014 µM in test [1], 11 µM in test [2], 0.95 µM in test [3] and 0.18 µM in test [4].
The matching figures for `CC[C@@H](C)[C@H](S)C(=O)N[C@@H](Cc1ccccc1)C(=O)O`: 0.0015 µM, 0.53 µM, 0.035 µM and 0.57 µM.
The matching figures for `CC[C@@H](C)[C@H](S)C(=O)N[C@@H](Cc1ccc(OCc2cc(C(F)(F)F)cc(C(F)(F)F)c2)cc1)C(=O)O`: 0.084 µM, 11 µM, 11 µM and 25 µM.
For `CC[C@@H](C)[C@H](S)C(=O)N[C@@H](Cc1ccc(OCc2ccccc2)cc1)C(=O)O`, the Ki in test [1] was 0.0027 µM; in test [2] it was 4.6 µM; in test [3] it was 0.3 µM; in test [4], 0.57 µM. Besides, the Selectivity ratio in test [8] amounted to 110.
Regarding `CC[C@@H](C)[C@H](S)C(=O)N[C@@H](Cc1ccccc1-c1ccccc1)C(=O)O`, the Ki in test [1] came out at 0.037 µM; in test [2], 9.9 µM; in test [3], 0.19 µM; in test [4], 20 µM.
